Data as given in patent publication US20180258180A1, “COMBINATION THERAPY INVOLVING ANTIBODIES AGAINST CLAUDIN 18.2 FOR TREATMENT OF CANCER” (Ganymed Pharmaceuticals AG, priority 2012, published 2018).

Assays:
[1] = molecular target: CLDN18.1 (Homo sapiens, UniProt P56856); assay: IMAB362 binding to other claudin family members
[2] = system: CLDN18.2-positive cancer cell lines; assay: IMAB362 treatment of mice bearing CLDN18.2-positive cancer cell lines; format: in vivo
[3] = Repeated dose toxicity study in mice; format: in vivo; settings: weekly administration for 3 months, highest dose levels 400 mg/kg
Description: (§1) This compartimentalization is lost upon malignant transformation rendering the epitope drugable by IMAB362.

[4] = Toxicity and PK/TK profile studies (any toxicity study); format: in vivo, mice and cynomolgus monkeys
Description: as §1

[5] = Phase I clinical study, single intravenous administration; format: in vivo, human
Description: IMAB362 is in early clinical testing. A phase I clinical study has been conducted in human. […] In an ongoing phase IIa clinical study IMAB362 is given repetitively.

[6] = system: NUGC-4 gastric cancer cells; assay: IMAB362-mediated ADCC on chemotherapy pretreated NUGC-4 cells; format: cell-based, human; settings: NUGC-4 pretreated with 5-FU+OX, EOF or FLO for 96 hours
Experimental: IMAB362-mediated ADCC was investigated using NUGC-4 gastric cancer cells as target, which were either pretreated with 10 ng/ml 5-FU and 500 ng/ml oxaliplatin (5-FU+OX), 10 ng/ml epirubicin, 500 ng/ml oxaliplatin and 10 ng/ml 5-FU (EOF) or 10 ng/ml 5-FU, 50 ng/ml folinic acid and 500 ng/ml oxaliplatin (FLO) for 96 hours (effector:target ratio 40:1) or untreated. EC50 values were obtained from 7 healthy donors for untreated and EOF, FLO or 5-FU+OX pretreated NUGC-4 cells.

[7] = system: NUGC-4 cells expressing CLDN18.2; assay: IMAB362 ADCC with ZA/IL-2 cultivated PBMCs on NUGC-4 cells (luciferase); format: cell-based, human; settings: PBMCs cultivated 14 days with ZA/IL-2, NUGC-4 targets
Experimental: Specific killing was determined in luciferase assays; cf. FIG. 14a. […] NUGC-4 served as target cells.

[8] = system: CLDN18.2-positive (NUGC-4, KATO III) human target cell lines; assay: IMAB362 ADCC with ZA/IL-2 expanded effector cells on CLDN18.2-positive target cell lines; format: cell-based
Experimental: These effector cell cultures were used in ADCC assays with CLDN18.2-positive (NUGC-4, KATO III) and negative (SK-BR-3) human target cell lines (E:T ratio 40:1). […] ADCC was measured in luciferase assays; cf. FIG. 15a. […] FIG. 15b. Same experiment as described in (a) was performed using NUGC-4 as target cells; cf. FIG. 15c. […] A purity of more than 97.0% Vγ9Vδ2 T cells in lymphocytes was obtained.

[9] = system: HEK293~CLDN18.2 tumor xenografts; assay: Treatment of advanced HEK293~CLDN18.2 tumor xenografts; format: in vivo, nude mice
Description: Moreover, advanced tumor treatment experiments were initiated up to 9 days after tumor cell inoculation when tumors had reached volumes of about 60-120 mm^3.
(§2) Treatment of 9 to 10 mice per group was initiated when mean tumor volumes reached 88 mm^3 (62-126 mm^3). […] All mice in the groups treated with either PBS or isotype control died within 50-100 days. […] Three of these mice survived the entire observation period (FIG. 20). Importantly, antitumoral efficacy in vivo depends on the presence of the target on the tumor cells.

[10] = system: CLDN18.2-negative HEK293 tumor cells; assay: IMAB362 treatment of CLDN18.2-negative HEK293 tumors; parameters: species or system mice; settings: mouse, in vivo
Description: as §2

[11] = system: NUGC-4 gastric cancer cells; assay: NUGC-4 gastric tumor xenograft model; format: in vivo, athymic nude mice
Description: NUGC-4 cells grow aggressively in nude mice.
Tumor sizes were monitored twice weekly.
When 1×10^7 tumor cells are inoculated in mice, the median survival time of untreated mice is not longer than 25 days. […] Mice were stratified size-dependently into treatment groups (FIG. 21).

[12] = system: NCI-N87~CLDN18.2 xenograft tumors; assay: NCI-N87~CLDN18.2 gastric carcinoma xenografts, IMAB362 immunotherapy; format: in vivo, nude mice; settings: 800 μg i.v. weekly
Experimental: NCI-N87˜CLDN18.2 xenograft tumors were inoculated subcutaneously by injection of 1×10^7 NCI-N87˜CLDN18.2 cells into the flank of 8 nude mice (female, 6 weeks old) per treatment group. […] Intravenous administration was continued weekly for the whole observation time. Tumor size and animal health was monitored semi-weekly. […] The size of s.c. tumors was measured twice weekly (mean+SEM, ***p<0.001). […] Mice were sacrificed, when tumor reached a volume of 1400 mm^3.

[13] = system: NUGC-4~CLDN18.2 xenografts; assay: NUGC-4~CLDN18.2 xenografts, IMAB362 immunotherapy; parameters: species or system mice; settings: mouse, in vivo
[14] = system: NCI-N87~CLDN18.2 xenograft tumors; assay: Combination of IMAB362 and EOF regimen on NCI-N87~CLDN18.2 xenografts; format: in vivo, nude mice
Experimental: NCI-N87˜CLDN18.2 xenograft tumors were inoculated by injection of 1×10^7 NCI-N87˜CLDN18.2 cells subcutaneous into the flank of 9 mice for each treatment group. […] IMAB362 treatment was continued weekly. Tumor size and animal health was monitored semi-weekly. […] The size of s.c. tumors was measured twice weekly (mean+SEM; *p<0.05). […] Mice were sacrificed, when tumor reached a volume of 1400 mm^3.

[15] = system: CLS-103~cldn18.2 allograft tumors; assay: Combination of IMAB362 and EOF on CLS-103~cldn18.2 allograft tumors; parameters: species or system NMRI mice; settings: mouse, in vivo
Description: Tumor size and animal health were monitored semi-weekly. Mice were sacrificed, when tumor reached a volume of 1400 mm^3 or tumors became ulcerous.

[16] = system: NUGC-4 xenografts; assay: Biodistribution of Dyelight 680-labeled antibodies in NUGC-4 xenografted nude mice; settings: live imaging

CLDN18.1, sequence (P56856 whole entry): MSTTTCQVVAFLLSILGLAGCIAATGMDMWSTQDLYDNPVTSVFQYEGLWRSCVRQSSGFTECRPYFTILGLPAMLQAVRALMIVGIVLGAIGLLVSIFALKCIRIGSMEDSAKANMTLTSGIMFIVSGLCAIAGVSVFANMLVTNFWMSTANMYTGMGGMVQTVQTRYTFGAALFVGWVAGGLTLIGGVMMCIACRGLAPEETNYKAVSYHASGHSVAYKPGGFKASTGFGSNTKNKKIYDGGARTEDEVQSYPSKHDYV

Question: Which “binding to any other claudin family member including CLDN18.1” value [1] does the source give for “IMAB362: chimeric IgG1 antibody directed against CLDN18.2, developed by Ganymed Pharmaceuticals AG” here?
Answer: does not bind

Question: And the “mice showing regression of their tumor” value [2]?
Answer: up to 40%

Question: What about the survival [2] of the same substance?
Answer: survival benefit

Question: And the “tolerability of repeated doses i.v.” value [3]?
Answer: well tolerated

Question: What about the gastric toxicity ([4]; any toxicity study) of the same substance?
Answer: no gastric toxicity

Question: And the “adverse effects on male or female reproductive organs” value ([4]; in vivo)?
Answer: No adverse effects

Question: What about the “binding to tissues lacking the target” value ([4]; in vivo) of the same substance?
Answer: does not bind

Question: And the “immune activation and cytokine release” value ([4]; in vivo)?
Answer: does not induce

Question: And the “systemic or local toxicity” value ([4]; repeated doses i.v., mice and cynomolgus monkeys)?
Answer: No signs of systemic or local toxicity

Question: And the measured tumor markers ([5]; in one patient, within 4 weeks after treatment)?
Answer: decreased significantly

Question: What about the tolerability in patients ([5]; single i.v. administration, 33-1000 mg/m^2, observed for 28 days) of the same substance?
Answer: very well tolerated

Question: What about the “maximal lysis in IMAB362-mediated ADCC, pretreated versus untreated target cells” value [6] of the same substance?
Answer: higher maximal lysis

Question: And the “EC50 of IMAB362-mediated ADCC on pretreated cells relative to untreated cells” value ([6]; E:T 40:1, 7 donors)?
Answer: one third

Question: What about the “IMAB362-dependent ADCC activity” value [7] of the same substance?
Answer: Strong

Question: And the “ADCC activity with Vγ9Vδ2 T cells isolated with >97% purity” value ([8]; NUGC-4 targets, day 14)?
Answer: retained and partly improved

Question: What about the “ADCC activity against CLDN18.2-positive human tumor cell lines” value ([8]; ZA/IL-2 cultured effector cells, E:T 40:1) of the same substance?
Answer: Strong ADCC activity

Question: What about the median survival time ([9]; 200 μg twice per week for 6 weeks, start at mean tumor volume 88 mm^3, versus 25 days) of the same substance?
Answer: 47 days

Question: And the “mice surviving the entire observation period” value ([9]; 9 to 10 mice per group)?
Answer: Three

Question: What about the survival ([9]; advanced tumors) of the same substance?
Answer: survival benefit

Question: And the antitumoral effects [10]?
Answer: No antitumoral effects

Question: What about the “tumor growth compared to controls” value ([11]; 200 μg twice weekly, starting 6 days after inoculation, p<0.05) of the same substance?
Answer: significant inhibited

Question: And the median survival time ([11]; non-significantly increased, versus 25 days)?
Answer: 31 days

Question: And the “tumor volumes at day 21 after tumor inoculation compared to control mice” value ([11]; p<0.05)?
Answer: significant smaller

Question: What about the tumor growth rate ([11]; treatment initiated at mean tumor size about 109 mm^3) of the same substance?
Answer: significantly reduce tumor growth rate

Question: And the survival time [12]?
Answer: significantly (p<0.05) longer survival time

Question: What about the tumor growth ([12]; start 5 days after inoculation, versus saline) of the same substance?
Answer: inhibited highly significant (p<0.001)

Question: What about the survival [13] of the same substance?
Answer: significantly (p<0.05) longer survival

Question: And the “tumor sizes at day 14 of treatment” value [13]?
Answer: significant (p<0.05) smaller tumor sizes

Question: And the “tumor growth compared to control mice” value ([14]; IMAB362 800 μg weekly, EOF i.p. day 4, 11, 18, 25)?
Answer: highly significant suppressed tumor growth

Question: What about the median survival ([14]; saline control 59 days) of the same substance?
Answer: 76 days

Question: And the “tumor growth inhibition compared to saline control group” value [15]?
Answer: no significant tumor growth inhibition

Question: And the “retention of labeled antibody signal 120 hours after injection” value [16]?
Answer: detectable in comparable intensity
